Values of other authors as cited in publication PMC12281572.

Experiment: FTIR, 4-fluorophenol as donor (the pK_BHX database, per the paper)
Conditions: CCl4; 25 C

SMILES	pK_BHX (log10 Kf of the 1:1 H-bond complex with 4-fluorophenol, by FTIR)
CCN(CC)C(=O)c1ccccc1	2.26 log units
Cc1ccc(O)cc1	0.03 log units
CCOC(=O)C(C)(C)C	1.04 log units
CN(C)C=NC(C)(C)C	2.41 log units
CN1CN(C)C1=O	2.46 log units
Oc1ccc(F)cc1	-0.12 log units
CC(C)c1ccccn1	1.76 log units
CNC(C)=S	1.14 log units
Cn1cccn1	1.84 log units
N#Cc1c(F)c(F)c(F)c(F)c1F	0.01 log units
COc1ccc(Cl)cc1	-0.25 log units
NCc1cccc(Cl)c1	1.55 log units
CC(C)(C)Cl	-0.28 log units
CC(C)(C)c1cc(C(C)(C)C)cc(C(C)(C)C)c1	-0.23 log units
Fc1cccnc1	1.35 log units
CCCC[N+](CCCC)(CCCC)[N-]C#N	3.24 log units
O=C1CCCCCCCCCCCCCC1	1.22 log units
CC(=Nc1ccccc1)N(C)c1ccc(Br)cc1	1.38 log units
O=C(N(c1ccccc1)c1ccccc1)N(c1ccccc1)c1ccccc1	1.74 log units

SMILES	pK_BHX (log10 Kf of the 1:1 H-bond complex with 4-fluorophenol, by FTIR)
C1CCOC1	1.28 log units
C1COCCOCCOCCOCCO1	1.12 log units
CC(C)CN=CN(C)C	2.52 log units
C1CSCS1	-0.38 log units
CCCCc1ccccn1	1.88 log units
CC(C)(C)c1ccncc1	2.11 log units
Clc1cccc(N=C(Nc2ccccc2)c2ccccc2)c1	1.05 log units
c1cc2c3c(c1)CCCN3CCC2	0.39 log units
CC(C)(C)C(=O)C(C)(C)C	0.96 log units
O=[N+]([O-])c1ccc(C23CC4CC(CC(C4)C2)C3)cc1	0.42 log units
CCN(CC)CC(F)(F)F	0.23 log units
c1ncn(C2CCCCC2)c1C1CCCCC1	3.12 log units
CN(C)C=NCC(C)(C)C	2.26 log units
CC(C)(C)C(=O)N(C1CCCCC1)C1CCCCC1	2.06 log units
COc1cccc(CN)c1	1.94 log units
CCOC(=O)N(CC)CC	1.95 log units
CC1(C)CC(=O)C=C(Cl)C1	1.21 log units
Oc1ccccc1	-0.07 log units
Cc1ccc(N=C(c2ccccc2)N(C)c2ccccc2)cc1	1.52 log units

SMILES	pK_BHX (log10 Kf of the 1:1 H-bond complex with 4-fluorophenol, by FTIR)
CC(C)S	-0.1 log units
COc1cccc(OC)c1	-0.08 log units
CCCCCCCCSC	0.17 log units
COc1ccc(N=CN(C)C)cc1	2.08 log units
FC1C2CC3CC(C2)C(F)C1C3 (centres unmarked)	0.48 log units
CC(C)(C)[N+](=O)[O-]	0.42 log units
CCN(CC)c1ccc([N+](=O)[O-])cc1	0.9 log units
IC1CCCCC1	-0.32 log units
COc1ccc(C(=O)N(c2ccccc2)c2ccccc2)cc1	1.67 log units
O=C1CCCC1	1.27 log units
CC(C)(C)C#N	0.99 log units
O=S(c1ccccc1)c1ccccc1	2.04 log units
c1ccc(C2CCCCC2)cc1	-0.32 log units
CN(C(=Nc1ccc(Br)cc1)c1ccccc1)c1ccc(Br)cc1	0.99 log units
c1ccc(-c2ccnc3c2ccc2c(-c4ccccc4)ccnc23)cc1	3.26 log units
CC(=Nc1ccc(C)cc1)N(C)c1ccc(C)cc1	1.82 log units
CO	0.82 log units
CCCN(C)C	1.98 log units
